In US9233946B2, “Sulfonamide compounds” (KANCERA AB, priority 2010, dated 2016):

System: PANC-1 cells
Assay: Quantification of F-2,6-P2 in PANC-1 cells
Type: cell-based
Settings: Homo sapiens, PANC-1; read-out: IC50 based on quantification of F-2,6-P2
Summary of the method: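 Endogenous PFKFB3/PFKFB4 activity in PANC-1 cells, 18 h serum/glucose starvation in glucose-free DMEM/F12 with 0.25% FBS, then 1 h compound preincubation (50 and 10 μM, or dose response from 50 μM; 0.5% DMSO) at 37 °C. Glucose stimulation for 2 h, NaOH lysis, F-2,6-P2 quantified by Van Schaftingen coupled enzymatic assay against in-house standard.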

IC50 [µM] | Compound
2.3 | Cc1c(S(=O)(=O)Nc2cccc(C(=O)O)c2)sc2ccc(C(C)C)cc12 [Example 5, 3-{[(5-Isopropyl-3-methyl-1-benzothien-2-yl)sulfonyl]amino}benzoic acid]
10.1 | Cc1c(S(=O)(=O)Nc2cccc(C(=O)O)c2)sc2ccc(Cl)cc12 [Example 38, 3-{[(5-Chloro-3-methyl-1-benzothien-2-yl)sulfonyl]amino}benzoic acid]
